Data reported in ChEMBL document CHEMBL6114986, “Vitexin alleviates lipid metabolism disorders and hepatic injury in obese mice through the PI3K/AKT/mTOR/SREBP-1c pathway” (Eur J Med Chem, 2025).
Active and inactive are the calls of the source. No cut-off for these calls is given here.

Columns and labels:
Type in all cases: functional, organism-based
Mus musculus [1] = assay: Anti-obesity activity in C57BL/6 mouse assessed as serum TC level at low dose administered intragastrically once daily for 5 weeks (reference value: 11.12 +/- 0.32 mmol/g)
Mus musculus [2] = assay: Anti-obesity activity in C57BL/6 mouse assessed as weight difference at low dose administered intragastrically once daily for 5 weeks (reference value: 9.80 +/- 0.97 g); details: route ig
Mus musculus [3] = assay: Anti-obesity activity in C57BL/6 mouse assessed as liver IL-6 level at low dose administered intragastrically once daily for 5 weeks (reference value: 1042.25 +/- 21.85 pg/g)
Mus musculus [4] = assay: Anti-obesity activity in C57BL/6 mouse assessed as serum TG level at low dose administered intragastrically once daily for 5 weeks (reference value: 13.13 +/- 1.10 mmol/g)
Mus musculus [5] = assay: Anti-obesity activity in C57BL/6 mouse assessed as initial weight at low dose administered intragastrically once daily for 5 weeks (reference value: 19.06 +/- 0.94 g); details: route ig
Mus musculus [6] = assay: Anti-obesity activity in C57BL/6 mouse assessed as decrease in […] level in liver at low to high dose administered intragastrically once daily for 5 weeks by immunoblot analysis; details: route ig
Mus musculus [7] = assay: Anti-obesity activity in C57BL/6 mouse assessed as final weight at high dose administered intragastrically once daily for 5 weeks (reference value: 28.86 +/- 0.86 g); details: route ig
Mus musculus [8] = assay: Anti-obesity activity in C57BL/6 mouse assessed as liver weight at low dose administered intragastrically once daily for 5 weeks (reference value: 1.15 +/- 0.04 g); details: route ig
Mus musculus [9] = assay: Anti-obesity activity in C57BL/6 mouse assessed as liver index at high dose administered intragastrically once daily for 5 weeks (reference value: 3.97 +/- 0.09 %); details: route ig
Mus musculus [10] = assay: Anti-obesity activity in C57BL/6 mouse assessed as decrease in ratio of p-PI3K/PI3K levels in liver at low to high dose administered intragastrically once daily for 5 weeks by immunoblot analysis; details: route ig
Mus musculus [11] = assay: Anti-obesity activity in C57BL/6 mouse assessed as reduction in liver TNF-alpha level at high dose administered intragastrically once daily for 5 weeks relative to control; parameters: scale not given: the % may be the effect or the level left; details: route ig
Mus musculus [12] = assay: Anti-obesity activity in C57BL/6 mouse assessed as liver IL-6 level at high dose administered intragastrically once daily for 5 weeks (reference value: 1042.25 +/- 21.85 pg/g); details: route ig
Mus musculus [13] = assay: Anti-obesity activity in C57BL/6 mouse assessed as final weight at low dose administered intragastrically once daily for 5 weeks (reference value: 28.86 +/- 0.86 g); details: route ig
Mus musculus [14] = assay: Anti-obesity activity in C57BL/6 mouse assessed as reduction in serum IL-18 level at high dose administered intragastrically once daily for 5 weeks relative to control; parameters: scale not given: the % may be the effect or the level left; details: route ig
Mus musculus [15] = assay: Anti-obesity activity in C57BL/6 mouse assessed as reduction in inflammatory cell infiltration in liver at low to high dose administered intragastrically once daily for 5 weeks by H and E staining based analysis; details: route ig
Mus musculus [16] = assay: Anti-obesity activity in C57BL/6 mouse assessed as serum IL-18 level at low dose administered intragastrically once daily for 5 weeks (reference value: 149.1 +/- 2.066 pg/ml)
Mus musculus [17] = assay: Anti-obesity activity in C57BL/6 mouse assessed as initial weight at high dose administered intragastrically once daily for 5 weeks (reference value: 19.06 +/- 0.94 g); details: route ig
Mus musculus [18] = assay: Anti-obesity activity in C57BL/6 mouse assessed as liver TNF-alpha level at high dose administered intragastrically once daily for 5 weeks (reference value: 5940.65 +/- 261.75 pg/g); details: route ig
Mus musculus [19] = assay: Anti-obesity activity in C57BL/6 mouse assessed as weight difference at high dose administered intragastrically once daily for 5 weeks (reference value: 9.80 +/- 0.97 g); details: route ig
Mus musculus [20] = assay: Anti-obesity activity in C57BL/6 mouse assessed as serum TG level at high dose administered intragastrically once daily for 5 weeks (reference value: 13.13 +/- 1.10 mmol/g)
Mus musculus [21] = assay: Anti-obesity activity in C57BL/6 mouse assessed as decrease in ratio of p-NFkappaB/NFkappaB levels in liver at low to high dose administered intragastrically once daily for 5 weeks by immunoblot analysis; details: route ig
Mus musculus [22] = assay: Anti-obesity activity in C57BL/6 mouse assessed as reduction in subabdominal fat thickness at low to high dose administered intragastrically once daily for 5 weeks by CT analysis; details: route ig
Mus musculus [23] = assay: Anti-obesity activity in C57BL/6 mouse assessed as reduction in body weight at high dose administered intragastrically once daily for 5 weeks relative to control; parameters: scale not given: the % may be the effect or the level left; details: route ig
Mus musculus [24] = assay: Anti-obesity activity in C57BL/6 mouse assessed as liver index at low dose administered intragastrically once daily for 5 weeks (reference value: 3.97 +/- 0.09 %); details: route ig
Mus musculus [25] = assay: Anti-obesity activity in C57BL/6 mouse assessed as liver weight at high dose administered intragastrically once daily for 5 weeks (reference value: 1.15 +/- 0.04 g); details: route ig
Mus musculus [26] = assay: Anti-obesity activity in C57BL/6 mouse assessed as serum TC level at high dose administered intragastrically once daily for 5 weeks (reference value: 11.12 +/- 0.32 mmol/g)
Mus musculus [27] = assay: Anti-obesity activity in C57BL/6 mouse assessed as decrease in ratio of p-AKT/AKT levels in liver at low to high dose administered intragastrically once daily for 5 weeks by immunoblot analysis; details: route ig
Mus musculus [28] = assay: Anti-obesity activity in C57BL/6 mouse assessed as liver TNF-alpha level at low dose administered intragastrically once daily for 5 weeks (reference value: 5940.65 +/- 261.75 pg/g)
Mus musculus [29] = assay: Anti-obesity activity in C57BL/6 mouse assessed as decrease in ratio of p-IkappaBalpha/IkappaBalpha levels in liver at low to high dose administered intragastrically once daily for 5 weeks by immunoblot analysis; details: route ig
Mus musculus [30] = assay: Anti-obesity activity in C57BL/6 mouse assessed as serum IL-18 level at high dose administered intragastrically once daily for 5 weeks (reference value: 149.1 +/- 2.066 pg/ml)
Mus musculus [31] = assay: Anti-obesity activity in C57BL/6 mouse assessed as reduction in serum TG level at high dose administered intragastrically once daily for 5 weeks relative to control; parameters: scale not given: the % may be the effect or the level left; details: route ig
Mus musculus [32] = assay: Anti-obesity activity in C57BL/6 mouse assessed as reduction in liver IL-6 level at high dose administered intragastrically once daily for 5 weeks relative to control; parameters: scale not given: the % may be the effect or the level left; details: route ig
Mus musculus [33] = assay: Anti-obesity activity in C57BL/6 mouse assessed as reduction in adipocyte volume at low to high dose administered intragastrically once daily for 5 weeks by CT analysis; details: route ig
Mus musculus [34] = assay: Anti-obesity activity in C57BL/6 mouse assessed as reduction in lipid droplets in liver at low to high dose administered intragastrically once daily for 5 weeks by H and E staining based analysis; details: route ig
Mus musculus [35] = assay: Anti-obesity activity in C57BL/6 mouse assessed as decrease in IL-1beta level in liver at low to high dose administered intragastrically once daily for 5 weeks by immunoblot analysis; details: route ig
Mus musculus [36] = assay: Anti-obesity activity in C57BL/6 mouse assessed as reduction in serum TC level at high dose administered intragastrically once daily for 5 weeks relative to control; parameters: scale not given: the % may be the effect or the level left; details: route ig
Mus musculus [37] = assay: Anti-obesity activity in C57BL/6 mouse assessed as decrease in ratio of p-mTOR/mTOR levels in liver at low to high dose administered intragastrically once daily for 5 weeks by immunoblot analysis; details: route ig

O=c1cc(-c2ccc(O)cc2)oc2c([C@@H]3O[C@H](CO)[C@@H](O)[C@H](O)[C@H]3O)c(O)cc(O)c12
Activity (Mus musculus [1]): 8.44 mmol/g | Activity (Mus musculus [2]): 5.76 g | Activity (Mus musculus [3]): 829 pg/g | Activity (Mus musculus [4]): 8.71 mmol/g | Activity (Mus musculus [5]): 21 g | Activity (Mus musculus [6]): Active | Activity (Mus musculus [7]): 24.9 g | Activity (Mus musculus [8]): 1.06 g | Activity (Mus musculus [9]): 3.23 g | Activity (Mus musculus [10]): Active | Activity (Mus musculus [11]): 30.8% | Activity (Mus musculus [12]): 806 pg/g | Activity (Mus musculus [13]): 26.7 g | Activity (Mus musculus [14]): 27.6% | Activity (Mus musculus [15]): Active | Activity (Mus musculus [16]): 125 pg/mL | Activity (Mus musculus [17]): 20.8 g | Activity (Mus musculus [18]): 4110 pg/g | Activity (Mus musculus [19]): 4.07 g | Activity (Mus musculus [20]): 8.23 mmol/g | Activity (Mus musculus [21]): Active | Activity (Mus musculus [22]): Active | Activity (Mus musculus [23]): 13.8% | Activity (Mus musculus [24]): 3.6% | Activity (Mus musculus [25]): 0.8 g | Activity (Mus musculus [26]): 7.81 mmol/g | Activity (Mus musculus [27]): Active | Activity (Mus musculus [28]): 5140 pg/g | Activity (Mus musculus [29]): Active | Activity (Mus musculus [30]): 108 pg/mL | Activity (Mus musculus [31]): 37.3% | Activity (Mus musculus [32]): 22.7% | Activity (Mus musculus [33]): Active | Activity (Mus musculus [34]): Active | Activity (Mus musculus [35]): Active | Activity (Mus musculus [36]): 29.8% | Activity (Mus musculus [37]): Active
